Measured values reported in patent US6534446B1, “Method to mitigate plant stress” (Emerald BioAgriculture Corporation, priority 1994, dated 2003).

Experiments:
Type in all cases: in vivo
[1] = system: Roundup Ready cotton seeds; experiment: Cold-induced inhibition of cotton seed germination; conditions: for number of cotton seeds germinated / Fresh Wt.: 300 ppm each component; for Fresh Wt.: seedlings harvested 17 days after planting
[2] = system: cabbage plants; experiment: Heat stress in cabbage, fresh weight; conditions: CaNO3 2500 ppm alone
[3] = system: Duckweed; experiment: Copper salt stress in duckweed, dry weight; conditions: fifteen days of growth

Structure (SMILES)	number of cotton seeds germinated ([1]; 5 days after planting, 59° F. (15° C.)/50° F. (10° C.), 45 seeds)	number of cotton seeds germinated ([1]; 5 days after planting, 75° F. (24° C.), 45 seeds per treatment)	number of cotton seeds germinated ([1]; 7 days after planting, 59° F. (15° C.)/50° F. (10° C.), 45 seeds)	number of cotton seeds germinated ([1]; 7 days after planting, 75° F. (24° C.), 45 seeds)	number of cotton seeds germinated ([1]; 9 days after planting, 59° F. (15° C.)/50° F. (10° C.), 45 seeds)	number of cotton seeds germinated ([1]; 9 days after planting, 75° F. (24° C.), 45 seeds)	seeds germinated, % of all seeds ([1]; 9 days after planting, low temperatures, 45 seeds per treatment) [%]	number of cotton seeds germinated ([1]; 13 days after planting, 59° F. (15° C.)/50° F. (10° C.), 45 seeds)	number of cotton seeds germinated ([1]; 13 days after planting, 75° F. (24° C.), 45 seeds)	number of cotton seeds germinated ([1]; 17 days after planting, 59° F. (15° C.)/50° F. (10° C.), 45 seeds)	number of cotton seeds germinated ([1]; 17 days after planting, 75° F. (24° C.), 45 seeds)	Fresh Wt. ([1]; 59° F. (15° C.)/50° F. (10° C.)) [g]	Fresh Wt. ([1]; 75° F. (24° C.)) [g]	Mean Fresh Weight (g) ± SD ([2]; oven at 48° C. (118° F.) for twelve hours, weighed one week later) [g]	% of Room Temperature Control ([2]; oven at 48° C. for twelve hours) [%]	Average Dry Weight (mg) ± SD ([3]; Copper 1.7 ppm) [mg]	% Change From Control ([3]; Copper 3.3 ppm) [%]	Average Dry Weight (mg) ± SD ([3]; Copper 3.3 ppm) [mg]
O=[N+]([O-])[O-].O=[N+]([O-])[O-].[Ca+2] [CaNO3, calcium nitrate]	0	9	0	38	6	41	13	23	42	31	43	4.01	8.70	28.8 ± 5.6	77			
O.O.O.O.O.O=S(=O)([O-])[O-].[Cu+2] [Copper, CuSo4SH2O]																18.0 ± 4.7	−70	8.3 ± 0.7
